From PubChem BioAssay AID1918991 (Molecular Pharmacology Branch, DTP, NCI, 2023)

Tested on: 186277-243-T-J2-PDC complex spheroid growth
Assay: Anticancer human tumor 186277-243-T-J2-PDC patient-derived colon adenocarcinoma cell line growth inhibition [AhR]
Details: for IC50: curve of first compound; for viability, T/C: stronger effect = lower value
Summary of the method: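 Complex tumor spheroids co-cultured with HUVEC and human MSC stroma; AhR antagonists tested in combination with standard-of-care and investigational agents. Top concentration at or near clinical Cmax (else 10 microM), half-log dilutions; growth expressed as percent test/control.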

[1] = second compound 0.1 µM, first compound 0.0316 µM
[2] = second compound 0.1 µM, first compound 0.1 µM
[3] = second compound 0.1 µM, first compound 0.316 µM
[4] = second compound 0.1 µM, first compound 1 µM
[5] = second compound 0.316 µM, first compound 0.0316 µM
[6] = second compound 0.316 µM, first compound 0.1 µM
[7] = second compound 0.316 µM, first compound 0.316 µM
[8] = second compound 0.316 µM, first compound 1 µM
[9] = second compound 1 µM, first compound 0.0316 µM
[10] = second compound 1 µM, first compound 0.1 µM
[11] = second compound 1 µM, first compound 0.316 µM
[12] = second compound 1 µM, first compound 1 µM
[13] = second compound 3.16 µM, first compound 0.0316 µM
[14] = second compound 3.16 µM, first compound 0.1 µM
[15] = second compound 3.16 µM, first compound 0.316 µM
[16] = second compound 3.16 µM, first compound 1 µM
[17] = second compound 10 µM, first compound 0.0316 µM
[18] = second compound 10 µM, first compound 0.1 µM
[19] = second compound 10 µM, first compound 0.316 µM
[20] = second compound 10 µM, first compound 1 µM
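Further: spheroids exposed to compounds for seven days before the viability read.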
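Wherever viability, T/C is given: luminescent signal used as a stand-in for viable cell amount; 100% = DMSO vehicle control wells.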

IC50 (second compound 0.1 µM) [µM]	IC50 (second compound 0.316 µM) [µM]	IC50 (second compound 1 µM) [µM]	IC50 (second compound 3.16 µM) [µM]	IC50 (second compound 10 µM) [µM]	SMILES	viability, T/C [1] [%]	viability, T/C [2] [%]	viability, T/C [3] [%]	viability, T/C [4] [%]	viability, T/C [5] [%]	viability, T/C [6] [%]	viability, T/C [7] [%]	viability, T/C [8] [%]	viability, T/C [9] [%]	viability, T/C [10] [%]	viability, T/C [11] [%]	viability, T/C [12] [%]	viability, T/C [13] [%]	viability, T/C [14] [%]	viability, T/C [15] [%]	further results
0.0243	0.0236	0.0204	0.0192	0.0114	CC1COCCN1c1cc(-c2ccnn2C)c2ccnc(-c3ccn[nH]3)c2n1 (stereo not given) + CC(CO)NC(=O)c1cc(-c2ccc(Cl)cc2)nn(-c2cnn(C)c2)c1=O	38.1	7.53	3.44	2.42	37.5	6.69	2.84	2.25	34.2	6.17	3.4	2.51	24.2	6.02	3.47	viability, T/C (second compound 0.1 µM, first compound 0.00316 µM): 100%; viability, T/C (second compound 0.1 µM, first compound 0.01 µM): 89.9%; viability, T/C (second compound 0.316 µM, first compound 0.00316 µM): 91%; viability, T/C (second compound 0.316 µM, first compound 0.01 µM): 86.3%; viability, T/C (second compound 1 µM, first compound 0.00316 µM): 103%; viability, T/C (second compound 1 µM, first compound 0.01 µM): 77%; viability, T/C (second compound 3.16 µM, first compound 0.00316 µM): 82.3%; viability, T/C (second compound 3.16 µM, first compound 0.01 µM): 84.8%; viability, T/C [16]: 2.6%; viability, T/C (second compound 10 µM, first compound 0.00316 µM): 79.3%; viability, T/C (second compound 10 µM, first compound 0.01 µM): 54.1%; viability, T/C [17]: 18.2%; viability, T/C [18]: 6.38%; viability, T/C [19]: 3.92%; viability, T/C [20]: 2.78%
0.885	0.899	0.801	0.734	0.611	CC1COCCN1c1cc(C2(S(C)(=N)=O)CC2)nc(-c2ccnc3[nH]ccc23)n1 (stereo not given) + CC(CO)NC(=O)c1cc(-c2ccc(Cl)cc2)nn(-c2cnn(C)c2)c1=O	99.5	97.3	86	47	97.9	101	87.3	47.1	109	92.8	89.8	41.1	91.1	90.9	76.9	viability, T/C (second compound 0.1 µM, first compound 3.16 µM): 5.74%; viability, T/C (second compound 0.1 µM, first compound 10 µM): 3.37%; viability, T/C (second compound 0.316 µM, first compound 3.16 µM): 6.52%; viability, T/C (second compound 0.316 µM, first compound 10 µM): 3.04%; viability, T/C (second compound 1 µM, first compound 3.16 µM): 5.47%; viability, T/C (second compound 1 µM, first compound 10 µM): 2.94%; viability, T/C [16]: 41%; viability, T/C (second compound 3.16 µM, first compound 3.16 µM): 5.43%; viability, T/C (second compound 3.16 µM, first compound 10 µM): 2.86%; viability, T/C [17]: 76.3%; viability, T/C [18]: 75.9%; viability, T/C [19]: 71.8%; viability, T/C [20]: 33.7%; viability, T/C (second compound 10 µM, first compound 3.16 µM): 6.79%; viability, T/C (second compound 10 µM, first compound 10 µM): 3.4%
